Measurements taken from patent US20050059718A1, “Methods of using zonisamide as an adjunctive therapy for partial seizures” (priority 2003, published 2005).
Entries after “also recorded” stand apart in the source; their conditions may differ.

What was measured:
[1] = patients; cited from earlier work
[2] = Source text: The clinical manifestations of myeloma vary from smoldering myeloma to symptomatic plasma cell dyscrasia. A lot of variables, alone or in combination, have been used as a discriminating index of malignant proliferation of B-lymphocytes or plasma cells.
[3] = patients on regular dosages; cited from earlier work
[4] = tested on: cultured mouse spinal cord neurons; conditions: 10-30 μg/mL, cited from earlier work
[5] = tested on: GABA/benzodiazepine receptor ionophore complex; conditions: in vitro; no change in chloride flux; cited from earlier work
[6] = tested on: T-type Ca2+ currents; conditions: in vitro; cited from earlier work
[7] = tested on: sodium channels; conditions: in vitro; cited from earlier work
[8] = tested on: liver enzymes; conditions: cited from earlier work
[9] = tested on: dopaminergic and serotonergic neurotransmission; conditions: in vivo microdialysis; cited from earlier work
[10] = tested on: carbonic anhydrase; conditions: relative to acetazolamide; cited from earlier work
[11] = tested on: rat hippocampal slices; conditions: 10-30 μg/mL; cited from earlier work
[12] = cited from earlier work

## NC(=O)N1c2ccccc2C=Cc2ccccc21 [Carbamazepine]
[1]
  association with multiple myeloma: associated with development of MM

## O=C1NC(=O)C(c2ccccc2)(c2ccccc2)N1 [phenyloin]
[1]
  association with multiple myeloma: implicated in several incidents of multiple myeloma

## CCC1(c2ccccc2)C(=O)NCNC1=O [primidone]
[1]
  association with multiple myeloma: associated with development of MM

## CCCC(CCC)C(=O)[O-].[Na+] [sodium valproate]
[2]; 13-month follow-up
  seizure control after replacing zonisamide: prevented convulsions

## NS(=O)(=O)Cc1noc2ccccc12 [zonisamide, 1,2-benzisoxazole-3-methanesulfonamide]
[3]
  correlation between dosage or serum level and immunoglobulin levels: no significant correlation
[4]; cultured mouse spinal cord neurons
  postsynaptic GABA or glutamate responses: without affecting postsynaptic GABA or glutamate responses
[4]
  synaptically-driven electrical activity: suppresses synaptically-driven electrical activity
[5]
  binding to GABA/benzodiazepine receptor ionophore complex: binds to the GABA/benzodiazepine receptor ionophore complex in an allosteric fashion
[2]; human, in vivo
  Bence-Jones protein in urine: not demonstrated
  M-protein concentration: > 3.5 g/dL
  bone marrow chromosomal analysis: normal karyotype of 46 XY
  diagnosis: smoldering multiple myeloma
  helper T cell count (CD4): normal
  peripheral blood examination: no cytopenia
  serum IgA: 40 mg/dL
  serum IgM: 38 mg/dL
  serum creatinine, calcium and beta2-microglobulin: not elevated
  serum immunoglobulin G (IgG): 3.68 g/dL
  serum protein immunoelectrophoresis: M-protein composed of IgG with a single lambda type of L-chain
[6]
  effect on voltage-dependent, transient inward currents (T-type Ca2+ currents): reduces voltage-dependent, transient inward currents
[7]
  effect on sodium channels: blocks sodium channels
[8]
  liver (hepatic) enzyme induction: not known to be a hepatic enzyme inducer; also recorded: no liver enzyme inducing activity
[9]
  dopaminergic and serotonergic neurotransmission: facilitates both dopaminergic and serotonergic neurotransmission
[10]
  carbonic anhydrase inhibiting activity, inhibition compared to acetazolamide: 1/50
[11]
  neuronal or glial uptake of [3H]-GABA: without affecting
[12]; in vivo
  half-life: long half-life
[12]; upon reaching a stable dose or following dosage adjustment
  time required to achieve steady-state levels: up to two weeks
